Data set [1] in a line: Oral bioavailability of sCTgly vs sCT-NH2, enteric coated capsules, dog model. Conditions: for Cmax: male, Beagle, read-out: Mean Cmax ± SEM; for Cmax / Mean AUC ± SERM: oral enteric coated capsule, dog plasma, adjusted to a 1 mg dose. The data set is classed as in vivo, Beagle dogs. As to the method: A study was carried out in a dog model to compare the pharmacokinetic parameters of orally delivered glycine-extended sCT (sCTgly) with those of amidated sCT (sCT-NH2).
Eight adult male Beagle dogs, weighing between 12 and 16 kg, were used in this study. Dogs were fasted overnight prior to administration of the test peptide, but were allowed free access to water. A wash-out period of at least 1 week occurred between experiments for each dog. Each dog received an orally administered, enteric coated gelatin capsule that contained 1.11 mg of sCTgly in week 1 and 1.11 mg of sCT-NH2 in week 2. Prior to capsule administration, a 20-gauge intravenous (IV) catheter was inserted into a brachial vein for the collection of blood samples. Two pre-dose samples of 3 ml each were collected from the brachial vein.
After administration of the capsule, 3 ml blood samples were collected from the brachial vein at 15 minute intervals up to 240 minutes post-administration. Blood samples were collected into new heparinized Monovette sampling syringes. Samples were placed on ice before being centrifuged for 10 minutes at approximately 2750 rpm at 2-8° C. The plasma supernatant was transferred to color-coded microcentrifuge tubes labeled with the time point and stored frozen at −20° C. prior to analysis to determine the concentration of sCTgly or sCT-NH2.
The concentration of sCTgly in plasma was determined by radioimmunoassay with an RIA kit from Peninsula Laboratories. sCT-NH2 concentration in plasma was determined by a sandwich ELISA immunoassay using a kit from Diagnostic Systems Laboratories Inc. From the pharmacokinetic profile of sCTgly or sCT-NH2 in plasma, the parameters of Cmax (peak of plasma concentration in pg/ml) and AUC (Area under the Curve) were determined. All measured values were normalized for a 1 mg peptide dose for either of the two peptides.

The conditions of data set [2]: cited from earlier work.
The nature of data set [3]: Blood levels of salmon calcitonin after direct injection into duodenum, ileum or colon of rats. The data set is classed as in vivo. Conditions: active components injected directly into duodenum. The source says:
The acid is believed to lower the local intestinal pH (where the active agent has been released) to levels below the optimal range for many intestinal proteases and other intestinal enzymes. This decrease in pH reduces the proteolytic activity of the intestinal proteases, thus affording protection to the peptide and the membrane translocator from potential degradation. The activity of these proteases is diminished by the temporarily acidic environment provided by the invention. It is preferred that sufficient acid be provided that local intestinal pH is lowered temporarily to 5.5 or below, preferably 4.7 or below and more preferably 3.5 or below. The sodium bicarbonate test described below (in the section captioned “the pH-Lowering Agent”) is indicative of the required acid amount.

A short description of data set [4]: in vivo. The note with it: rat; for AUC / Cmax / level at 0.25 h / level at 0.5 h / level at 1 h / level at 2 h: female; for level at 0.25 h / level at 0.5 h / level at 1 h / level at 2 h: 2.5 mg. The source says: The effect of C-terminal amidation on the absorption of luteinizing hormone-releasing hormone (LHRH-NH2) from the duodenum of anesthetized rats was examined. In this study the absorption characteristics of LHRH-NH2, a naturally occurring C-terminal amidated decapeptide were compared with that of LHRH-COOH, a decapeptide with the same amino acid sequence as that of LHRH-NH2 except that the C-terminal amino acid of LHRH-COOH is gly-COOH instead of gly-NH2. Twelve female rats were anesthetized and implanted with a cannula in the carotid artery for taking blood samples at various times. Six rats were injected in the duodenum through a 27 gauge needle with 0.5 mL of LHRH-NH2 (5 mg/mL) in 0.5M citric acid and lauroylcarnitine (10 mg/mL) and six rats with injected in the duodenum with 0.5 mL LHRH-COOH) (5 mg/mL) in the same formulation. Samples of blood were taken prior to the administration of formulated LHRH-NH2 or LHRH-COOH and at 5, 15, 30, 60, and 120 minutes after peptide administration. The resulting plasma samples were analyzed for LHRH-NH2 or LHRH-COOH by high performance liquid chromatography equipped with a fluorescence detector to measure the concentration of peptide in plasma.

For orientation: Cmax means the highest concentration seen after dosing. Broadly, the half-life is the time needed for the level to fall by half in the phase considered. By AUC is commonly meant the area under the concentration-time curve, a measure of exposure.

`CC(C)C[C@H](NC(=O)[C@H](CCCCN)NC(=O)CNC(=O)[C@H](CC(C)C)NC(=O)[C@@H](NC(=O)[C@@H]1CSSC[C@H](N)C(=O)N[C@@H](CO)C(=O)N[C@@H](CC(N)=O)C(=O)N[C@@H](CC(C)C)C(=O)N[C@@H](CO)C(=O)N[C@@H]([C@@H](C)O)C(=O)N1)C(C)C)C(=O)N[C@@H](CO)C(=O)N[C@@H](CCC(N)=O)C(=O)N[C@@H](CCC(=O)O)C(=O)N[C@@H](CC(C)C)C(=O)N[C@@H](Cc1c[nH]cn1)C(=O)N[C@@H](CCCCN)C(=O)N[C@@H](CC(C)C)C(=O)N[C@@H](CCC(N)=O)C(=O)N[C@H](C(=O)N[C@@H](Cc1ccc(O)cc1)C(=O)N1CCC[C@H]1C(=O)N[C@@H](CCCNC(=N)N)C(=O)N[C@H](C(=O)N[C@@H](CC(N)=O)C(=O)N[C@H](C(=O)NCC(=O)N[C@@H](CO)C(=O)NCC(=O)N[C@H](C(=O)N1CCC[C@H]1C(=O)NCC(=O)O)[C@@H](C)O)[C@@H](C)O)[C@@H](C)O)[C@@H](C)O` [sCTgly]: in data set [1], the Cmax was found to be 0.485 ± 0.106 ng/mL and the “Mean AUC ± SERM” value was 25,125 ± 5,525 pg · min/ml.
`CC(C)C[C@H](NC(=O)[C@H](CCCCN)NC(=O)CNC(=O)[C@H](CC(C)C)NC(=O)[C@@H](NC(=O)[C@@H]1CSSC[C@H](N)C(=O)N[C@@H](CO)C(=O)N[C@@H](CC(N)=O)C(=O)N[C@@H](CC(C)C)C(=O)N[C@@H](CO)C(=O)N[C@@H]([C@@H](C)O)C(=O)N1)C(C)C)C(=O)N[C@@H](CO)C(=O)N[C@@H](CCC(N)=O)C(=O)N[C@@H](CCC(=O)O)C(=O)N[C@@H](CC(C)C)C(=O)N[C@@H](Cc1c[nH]cn1)C(=O)N[C@@H](CCCCN)C(=O)N[C@@H](CC(C)C)C(=O)N[C@@H](CCC(N)=O)C(=O)N[C@H](C(=O)N[C@@H](Cc1ccc(O)cc1)C(=O)N1CCC[C@H]1C(=O)N[C@@H](CCCNC(=N)N)C(=O)N[C@H](C(=O)N[C@@H](CC(N)=O)C(=O)N[C@H](C(=O)NCC(=O)N[C@@H](CO)C(=O)NCC(=O)N[C@H](C(=O)N1CCC[C@H]1C(N)=O)[C@@H](C)O)[C@@H](C)O)[C@@H](C)O)[C@@H](C)O` [sCT-NH2]: in data set [2] (man), the “blood levels after injection at conventional dosages” value is recorded as “no detectable blood levels more than two hours after injection” and the “duration of beneficial effect on osteoclasts” value is “more than 24 hours”. The “peak levels at which proven effective against osteoporosis” value in data set [2] (nasally administered, 200 International units) is reported as not below 10 picograms per milliliter. Besides, in data set [2] (patients), the “peak levels at which some patients report gastrointestinal distress” value was not below 200 picograms per milliliter. For the same molecule, the half-life in data set [2] (subcutaneous administration in man) is 20 to 40 min. Also, the peak serum concentration entry in data set [2] (subcutaneous administration, 100 International units) is “about 250 picograms per milliliter”. In addition, the “Tmax for blood levels” value in data set [3] lay in the range of 5 to 15 min. In data set [1], the Cmax is 3.2 ng/mL and the “Mean AUC ± SERM” value is on record as 148,000 ± 18,200 pg · min/ml. Moreover, in data set [1] (oral, dog), the “mean AUC relative to sCTgly” value turned out to be 5.9 times and the “mean Cmax relative to sCTgly” value is 6.6 times.
With `CC(C)C[C@H](NC(=O)CNC(=O)[C@H](Cc1ccc(O)cc1)NC(=O)[C@H](CO)NC(=O)[C@H](Cc1c[nH]c2ccccc12)NC(=O)[C@H](Cc1cnc[nH]1)NC(=O)[C@@H]1CCC(=O)N1)C(=O)N[C@@H](CCCN=C(N)N)C(=O)N1CCC[C@H]1C(=O)NCC(=O)O` [LHRH-COOH], in data set [4], the exposure (AUC) is 296 ng·h/mL, the maximum concentration (Cmax) is 654 ± 103 ng/mL, the level at 0.25 h came out at 654 ± 103 ng/mL and the level at 0.5 h came out at 391 ± 81 ng/mL. Besides, in data set [4], the level at 1 h was 163 ± 68 ng/mL, the level at 2 h was 56 ± 19 ng/mL and the “time at which maximum concentration (Cmax) was detected in plasma” value is on record as “five”.
For `CC(C)C[C@H](NC(=O)CNC(=O)[C@H](Cc1ccc(O)cc1)NC(=O)[C@H](CO)NC(=O)[C@H](Cc1c[nH]c2ccccc12)NC(=O)[C@H](Cc1cnc[nH]1)NC(=O)[C@@H]1CCC(=O)N1)C(=O)N[C@@H](CCCNC(=N)N)C(=O)N1CCC[C@H]1C(=O)NCC(N)=O` [LHRH-NH2], in data set [4], the AUC is 1820 ng·h/mL, the highest level (Cmax) was 3280 ± 893 ng/mL, the level at 0.25 h amounted to 3280 ± 893 ng/mL and the level at 0.5 h is 2900 ± 612 ng/mL. In addition, in data set [4], the level at 1 h turned out to be 1280 ± 282 ng/mL, the level at 2 h turned out to be 382 ± 103 ng/mL, the “AUC relative to free acid form of LHRH” value is on record as 6 times and the “amount detected in plasma relative to LHRH-COOH” value came to 5 times. For the same molecule, the “time at which maximum concentration (Cmax) was detected in plasma” value in data set [4] is listed as “five”.
